#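 Results reflect a 48-hour exposure of cells in 96-well plates to compound at five concentrations. Abbreviation: GI50, concentration required for 50% inhibition of growth. TGI denotes the concentration required for complete inhibition of growth.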
# Experiments:
# Test in all cases: NCI anticancer screen, dose series, 48 h
# NCI-H226 lung = tested on: NCI-H226 lung
# NCI-H23 lung = tested on: NCI-H23 lung
# NCI-H460 lung = tested on: NCI-H460 lung
# NCI-H522 lung = tested on: NCI-H522 lung
# NCI/ADR-RES ovarian = tested on: NCI/ADR-RES ovarian
# OVCAR-3 ovarian = tested on: OVCAR-3 ovarian
# OVCAR-4 ovarian = tested on: OVCAR-4 ovarian
# OVCAR-5 ovarian = tested on: OVCAR-5 ovarian
# OVCAR-8 ovarian = tested on: OVCAR-8 ovarian
# PC-3 prostate = tested on: PC-3 prostate
# RPMI-8226 leukemia = tested on: RPMI-8226 leukemia
# RXF 393 renal = tested on: RXF 393 renal
# SF-268 CNS = tested on: SF-268 CNS
# SF-295 CNS = tested on: SF-295 CNS
# SF-539 CNS = tested on: SF-539 CNS
# SK-MEL-2 melanoma = tested on: SK-MEL-2 melanoma
# SK-MEL-28 melanoma = tested on: SK-MEL-28 melanoma
# SK-MEL-5 melanoma = tested on: SK-MEL-5 melanoma
# SK-OV-3 ovarian = tested on: SK-OV-3 ovarian
# SN12C renal = tested on: SN12C renal
# SNB-19 CNS = tested on: SNB-19 CNS
# SNB-75 CNS = tested on: SNB-75 CNS
# SR leukemia = tested on: SR leukemia
# SW-620 colon = tested on: SW-620 colon
# T-47D breast = tested on: T-47D breast
# TK-10 renal = tested on: TK-10 renal
# U251 CNS = tested on: U251 CNS
# UACC-257 melanoma = tested on: UACC-257 melanoma
# UACC-62 melanoma = tested on: UACC-62 melanoma
# UO-31 renal = tested on: UO-31 renal
compound,measurement,setting,value
c1cc2[nH]ncc2cc1-c1nc2ccc3[nH]ncc3c2c2c1CCCC2,TGI,NCI-H226 lung,7790 nM
same,GI50,NCI-H23 lung,1830 nM
same,TGI,NCI-H23 lung,7440 nM
same,GI50,NCI-H460 lung,1200 nM
same,TGI,NCI-H460 lung,10500 nM
same,GI50,NCI-H522 lung,424 nM
same,TGI,NCI-H522 lung,3160 nM
same,GI50,NCI/ADR-RES ovarian,2080 nM
same,TGI,NCI/ADR-RES ovarian,16400 nM
same,GI50,OVCAR-3 ovarian,1780 nM
same,TGI,OVCAR-3 ovarian,7580 nM
same,GI50,OVCAR-4 ovarian,1970 nM
same,TGI,OVCAR-4 ovarian,14400 nM
same,GI50,OVCAR-5 ovarian,3060 nM
same,TGI,OVCAR-5 ovarian,18500 nM
same,GI50,OVCAR-8 ovarian,2660 nM
same,TGI,OVCAR-8 ovarian,15900 nM
same,GI50,PC-3 prostate,1440 nM
same,TGI,PC-3 prostate,21500 nM
same,GI50,RPMI-8226 leukemia,799 nM
same,TGI,RPMI-8226 leukemia,4900 nM
same,GI50,RXF 393 renal,822 nM
same,TGI,RXF 393 renal,2860 nM
same,GI50,SF-268 CNS,2310 nM
same,TGI,SF-268 CNS,14000 nM
same,GI50,SF-295 CNS,1840 nM
same,TGI,SF-295 CNS,7580 nM
same,GI50,SF-539 CNS,1530 nM
same,TGI,SF-539 CNS,5400 nM
same,GI50,SK-MEL-2 melanoma,509 nM
same,TGI,SK-MEL-2 melanoma,2150 nM
same,GI50,SK-MEL-28 melanoma,1280 nM
same,TGI,SK-MEL-28 melanoma,5880 nM
same,GI50,SK-MEL-5 melanoma,1670 nM
same,TGI,SK-MEL-5 melanoma,3920 nM
same,GI50,SK-OV-3 ovarian,781 nM
same,GI50,SN12C renal,2530 nM
same,TGI,SN12C renal,13400 nM
same,GI50,SNB-19 CNS,2350 nM
same,TGI,SNB-19 CNS,11000 nM
same,GI50,SNB-75 CNS,998 nM
same,TGI,SNB-75 CNS,4360 nM
same,GI50,SR leukemia,338 nM
same,GI50,SW-620 colon,441 nM
same,TGI,SW-620 colon,11200 nM
same,GI50,T-47D breast,2020 nM
same,TGI,T-47D breast,12300 nM
same,GI50,TK-10 renal,913 nM
same,TGI,TK-10 renal,21800 nM
same,GI50,U251 CNS,2660 nM
same,TGI,U251 CNS,15500 nM
same,GI50,UACC-257 melanoma,1670 nM
same,TGI,UACC-257 melanoma,8210 nM
same,GI50,UACC-62 melanoma,425 nM
same,TGI,UACC-62 melanoma,3530 nM
same,GI50,UO-31 renal,1330 nM
same,TGI,UO-31 renal,4540 nM

# Source: PubChem BioAssay (NCI)
